Reference: US20230085307A1, “PYRIDAZINONE COMPOUND AND HERBICIDE” (NISSAN CHEMICAL CORPORATION, priority 2019, published 2023)

What was measured:
persian speedwell [1] = experiment: Test Example 4: herbicidal effect by soil treatment (Table 19, symbol R); type: in vivo, Persian speedwell (Veronica persica); conditions: amount of applied herbicide 320 g/ha
Summary of the method: (§1)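 Step 1: sow seeds in sterilized diluvial soil, cover ~1.5 cm. Step 2: spray diluted emulsion onto soil surface at predetermined rate. Step 3: greenhouse, 25–30° C, three weeks. Step 4: grade effect on each plant by earlier criteria.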

Italian ryegrass [2] = experiment: Test Example 4: herbicidal effect by soil treatment (Table 19, symbol K); type: in vivo, Italian ryegrass (Lolium multiflorum); conditions: amount of applied herbicide 320 g/ha
Summary of the method: as §1

chickweed [3] = experiment: Test Example 5: herbicidal effect by foliage application, plastic box (Table 20, symbol P); type: in vivo, common chickweed (Stellaria media); conditions: 320 g/ha, foliage application after 14-day growth, evaluated three weeks after application
Summary of the method: (§2)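 Foliar spray test: emulsion formulation diluted in water to a set application rate, sprayed onto 14-day-old plants raised in diluvial soil at 25° C to 30° C under glass. Both herbicidal effect and crop effect rated visually three weeks later.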

Italian ryegrass [4] = experiment: Test Example 5: herbicidal effect by foliage application, plastic box (Table 20, symbol K); type: in vivo, Italian ryegrass (Lolium multiflorum); conditions: 320 g/ha, foliage application after 14-day growth, evaluated three weeks after application
Summary of the method: as §2

barnyard grass [5] = experiment: Test Example 4: herbicidal effect by soil treatment (Table 19, symbol H); type: in vivo, barnyard grass (Echinochloa crus-galli); conditions: amount of applied herbicide 320 g/ha
Summary of the method: as §1

lambsquarters [6] = experiment: Test Example 5: herbicidal effect by foliage application, plastic box (Table 20, symbol O); type: in vivo, lambsquarters (Chenopodium album); conditions: 320 g/ha, foliage application after 14-day growth, evaluated three weeks after application
Summary of the method: as §2

southern crabgrass [7] = experiment: Test Example 5: herbicidal effect by foliage application, plastic box (Table 20, symbol F); type: in vivo, southern crabgrass (Digitaria ciliaris); conditions: 320 g/ha, foliage application after 14-day growth, evaluated three weeks after application
Summary of the method: as §2

chickweed [8] = experiment: Test Example 4: herbicidal effect by soil treatment (Table 19, symbol P); type: in vivo, common chickweed (Stellaria media); conditions: amount of applied herbicide 320 g/ha
Summary of the method: as §1

southern crabgrass [9] = experiment: Test Example 4: herbicidal effect by soil treatment (Table 19, symbol F); type: in vivo, southern crabgrass (Digitaria ciliaris); conditions: amount of applied herbicide 320 g/ha
Summary of the method: as §1

late watergrass = experiment: Test Example 2: herbicidal activity, application during weed generation under submerged conditions (Table 17, symbol A); type: in vivo, late watergrass (Echinochloa oryzicola); conditions: AAH 320 g/ha; application during weed generation, submerged conditions
Summary of the method: (§3)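 Alluvial soil in Wagner pots was flooded to 4 cm depth and sown with the three weeds together; pots were kept in a greenhouse at 25° C. to 30° C. At the one to two leaf stage, an emulsion formulation diluted in water to a set rate went onto the water surface; scored three weeks later.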

green foxtail [10] = experiment: Test Example 5: herbicidal effect by foliage application, plastic box (Table 20, symbol G); type: in vivo, green foxtail (Setaria viridis); conditions: 320 g/ha, foliage application after 14-day growth, evaluated three weeks after application
Summary of the method: as §2

windgrass [11] = experiment: Test Example 5: herbicidal effect by foliage application, plastic box (Table 20, symbol L); type: in vivo, windgrass (Apera spica-venti); conditions: 320 g/ha, foliage application after 14-day growth, evaluated three weeks after application
Summary of the method: as §2

Chinese sprangletop = experiment: Test Example 3: herbicidal effect by foliage application, Wagner pot (Table 18, symbol D); type: in vivo, chinese sprangletop (Leptochloa chinensis); conditions: 320 g/ha
Summary of the method: (§4)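 Plants were sown in alluvial soil held under 0.1–0.5 cm standing water and grown 14 days in a greenhouse at 25–30 °C. An emulsifiable formulation, water-diluted to the set dose, was then sprayed onto the foliage, and effects were scored three weeks later using previously defined criteria.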

velvetleaf [12] = experiment: Test Example 5: herbicidal effect by foliage application, plastic box (Table 20, symbol M); type: in vivo, velvetleaf (Abutilon theophrasti); conditions: 320 g/ha, foliage application after 14-day growth, evaluated three weeks after application
Summary of the method: as §2

Japanese bulrush = experiment: Test Example 2: herbicidal activity, application during weed generation under submerged conditions (Table 17, symbol B); type: in vivo, Japanese bulrush (Schoenoplectus juncoides); conditions: AAH 320 g/ha; application during weed generation, submerged conditions
Summary of the method: as §3

green foxtail [13] = experiment: Test Example 4: herbicidal effect by soil treatment (Table 19, symbol G); type: in vivo, green foxtail (Setaria viridis); conditions: amount of applied herbicide 320 g/ha
Summary of the method: as §1

blackgrass [14] = experiment: Test Example 5: herbicidal effect by foliage application, plastic box (Table 20, symbol J); type: in vivo, blackgrass (Alopecurus myosuroides); conditions: 320 g/ha, foliage application after 14-day growth, evaluated three weeks after application
Summary of the method: as §2

barnyard grass [15] = experiment: Test Example 5: herbicidal effect by foliage application, plastic box (Table 20, symbol H); type: in vivo, barnyard grass (Echinochloa crus-galli); conditions: 320 g/ha, foliage application after 14-day growth, evaluated three weeks after application
Summary of the method: as §2

redroot pigweed [16] = experiment: Test Example 4: herbicidal effect by soil treatment (Table 19, symbol N); type: in vivo, redroot pigweed (Amaranthus retroflexus); conditions: amount of applied herbicide 320 g/ha
Summary of the method: as §1

velvetleaf [17] = experiment: Test Example 4: herbicidal effect by soil treatment (Table 19, symbol M); type: in vivo, velvetleaf (Abutilon theophrasti); conditions: amount of applied herbicide 320 g/ha
Summary of the method: as §1

persian speedwell [18] = experiment: Test Example 5: herbicidal effect by foliage application, plastic box (Table 20, symbol R); type: in vivo, Persian speedwell (Veronica persica); conditions: 320 g/ha, foliage application after 14-day growth, evaluated three weeks after application
Summary of the method: as §2

lambsquarters [19] = experiment: Test Example 4: herbicidal effect by soil treatment (Table 19, symbol O); type: in vivo, lambsquarters (Chenopodium album); conditions: amount of applied herbicide 320 g/ha
Summary of the method: as §1

oval-leafed pondweed = experiment: Test Example 2: herbicidal activity, application during weed generation under submerged conditions (Table 17, symbol C); type: in vivo, oval-leafed pondweed (Monochoria vaginalis); conditions: AAH 320 g/ha; application during weed generation, submerged conditions
Summary of the method: as §3

blackgrass [20] = experiment: Test Example 4: herbicidal effect by soil treatment (Table 19, symbol J); type: in vivo, blackgrass (Alopecurus myosuroides); conditions: amount of applied herbicide 320 g/ha
Summary of the method: as §1

rice flat sedge = experiment: Test Example 3: herbicidal effect by foliage application, Wagner pot (Table 18, symbol E); type: in vivo, rice flat sedge (Cyperus iria); conditions: 320 g/ha
Summary of the method: as §4

wild oat [21] = experiment: Test Example 5: herbicidal effect by foliage application, plastic box (Table 20, symbol I); type: in vivo, wild oat (Avena fatua); conditions: 320 g/ha, foliage application after 14-day growth, evaluated three weeks after application
Summary of the method: as §2

windgrass [22] = experiment: Test Example 4: herbicidal effect by soil treatment (Table 19, symbol L); type: in vivo, windgrass (Apera spica-venti); conditions: amount of applied herbicide 320 g/ha
Summary of the method: as §1

wild oat [23] = experiment: Test Example 4: herbicidal effect by soil treatment (Table 19, symbol I); type: in vivo, wild oat (Avena fatua); conditions: amount of applied herbicide 320 g/ha
Summary of the method: as §1

barnyard grass [24] = experiment: Test Example 3: herbicidal effect by foliage application, Wagner pot (Table 18, symbol H); type: in vivo, barnyard grass (Echinochloa crus-galli); conditions: 320 g/ha
Summary of the method: as §4

redroot pigweed [25] = experiment: Test Example 5: herbicidal effect by foliage application, plastic box (Table 20, symbol N); type: in vivo, redroot pigweed (Amaranthus retroflexus); conditions: 320 g/ha, foliage application after 14-day growth, evaluated three weeks after application
Summary of the method: as §2

CCCC(=O)Oc1c(C)nn(C)c(=O)c1-c1c(-c2ccccc2OC)sc2c(F)cccc12 [4-004]
Herbicidal effect by soil treatment, R: persian speedwell (persian speedwell [1]): 0 (Herbicidal rate of 5% or less (almost no effect))
Herbicidal effect by soil treatment, K: Italian ryegrass (Italian ryegrass [2]): 0 (Herbicidal rate of 5% or less (almost no effect))
herbicidal effect on P: chickweed (evaluation grade 0-5) (chickweed [3]): 5 (Herbicidal rate of 90% or more (almost completely withered))
herbicidal effect on K: Italian ryegrass (evaluation grade 0-5) (Italian ryegrass [4]): 0 (Herbicidal rate of 5% or less (almost no effect))
Herbicidal effect by soil treatment, H: barnyard grass (barnyard grass [5]): 1 (Herbicidal rate of 5% or more and less than 20%)
herbicidal effect on O: lambsquarters (evaluation grade 0-5) (lambsquarters [6]): 2 (Herbicidal rate of 20% or more and less than 40%)
herbicidal effect on F: southern crabgrass (evaluation grade 0-5) (southern crabgrass [7]): 3 (Herbicidal rate of 40% or more and less than 70%)
Herbicidal effect by soil treatment, P: chickweed (chickweed [8]): 1 (Herbicidal rate of 5% or more and less than 20%)
Herbicidal effect by soil treatment, F: southern crabgrass (southern crabgrass [9]): 0 (Herbicidal rate of 5% or less (almost no effect))
herbicidal effect rating, A: late watergrass (late watergrass): 3 (Herbicidal rate of 40% or more and less than 70%)
herbicidal effect on G: green foxtail (evaluation grade 0-5) (green foxtail [10]): 4 (Herbicidal rate of 70% or more and less than 90%)
herbicidal effect on L: windgrass (evaluation grade 0-5) (windgrass [11]): 0 (Herbicidal rate of 5% or less (almost no effect))
herbicidal effect on Chinese sprangletop (D) (Chinese sprangletop): 3 (Herbicidal rate of 40% or more and less than 70%)
herbicidal effect on M: velvetleaf (evaluation grade 0-5) (velvetleaf [12]): 4 (Herbicidal rate of 70% or more and less than 90%)
herbicidal effect rating, B: Japanese bulrush (Japanese bulrush): 0 (Herbicidal rate of 5% or less (almost no effect))
Herbicidal effect by soil treatment, G: green foxtail (green foxtail [13]): 0 (Herbicidal rate of 5% or less (almost no effect))
herbicidal effect on J: blackgrass (evaluation grade 0-5) (blackgrass [14]): 0 (Herbicidal rate of 5% or less (almost no effect))
herbicidal effect on H: barnyard grass (evaluation grade 0-5) (barnyard grass [15]): 3 (Herbicidal rate of 40% or more and less than 70%)
Herbicidal effect by soil treatment, N: redroot pigweed (redroot pigweed [16]): 3 (Herbicidal rate of 40% or more and less than 70%)
Herbicidal effect by soil treatment, M: velvetleaf (velvetleaf [17]): 0 (Herbicidal rate of 5% or less (almost no effect))
herbicidal effect on R: persian speedwell (evaluation grade 0-5) (persian speedwell [18]): 4 (Herbicidal rate of 70% or more and less than 90%)
Herbicidal effect by soil treatment, O: lambsquarters (lambsquarters [19]): 3 (Herbicidal rate of 40% or more and less than 70%)
herbicidal effect rating, C: oval-leafed pondweed (oval-leafed pondweed): 2 (Herbicidal rate of 20% or more and less than 40%)
Herbicidal effect by soil treatment, J: blackgrass (blackgrass [20]): 0 (Herbicidal rate of 5% or less (almost no effect))
herbicidal effect on rice flat sedge (E) (rice flat sedge): 4 (Herbicidal rate of 70% or more and less than 90%)
herbicidal effect on I: wild oat (evaluation grade 0-5) (wild oat [21]): 0 (Herbicidal rate of 5% or less (almost no effect))
Herbicidal effect by soil treatment, L: windgrass (windgrass [22]): 0 (Herbicidal rate of 5% or less (almost no effect))
Herbicidal effect by soil treatment, I: wild oat (wild oat [23]): 0 (Herbicidal rate of 5% or less (almost no effect))
herbicidal effect on barnyard grass (H) (barnyard grass [24]): 4 (Herbicidal rate of 70% or more and less than 90%)
herbicidal effect on N: redroot pigweed (evaluation grade 0-5) (redroot pigweed [25]): 5 (Herbicidal rate of 90% or more (almost completely withered))
